From US20250289793A1, “MACROCYCLIC INHIBITORS OF ATP CITRATE LYASE” (Esperion Therapeutics, Inc., priority 2022, published 2025) come the findings set out here.

The IC50 is the point on the concentration scale where inhibition reaches its midpoint.

Like-named read-outs stand apart in the source and are kept apart here.

The conditions of data set [1]: 15-membered ring.
For data set [2], the target named is Recombinant human ACLY full length protein (Homo sapiens (Human), UniProt P53396). Briefly: hACLY ADP-Glo activity assay. Type of data set: biochemical. The following applies: 0.5 nM ACLY; 15 μM sodium citrate, 1 μM coenzyme A, 80 μM ATP; ADP formed, luminescence; read-out: ADP-Glo IC50 GMean. On the procedure: Compounds of the disclosure were evaluated for their efficacy in inhibiting hACLY using an ADP-Glo™ assays that measure ADP formed from the enzymatic activity of hACLY.
Sequence of Recombinant human ACLY full length protein (P53396 whole entry): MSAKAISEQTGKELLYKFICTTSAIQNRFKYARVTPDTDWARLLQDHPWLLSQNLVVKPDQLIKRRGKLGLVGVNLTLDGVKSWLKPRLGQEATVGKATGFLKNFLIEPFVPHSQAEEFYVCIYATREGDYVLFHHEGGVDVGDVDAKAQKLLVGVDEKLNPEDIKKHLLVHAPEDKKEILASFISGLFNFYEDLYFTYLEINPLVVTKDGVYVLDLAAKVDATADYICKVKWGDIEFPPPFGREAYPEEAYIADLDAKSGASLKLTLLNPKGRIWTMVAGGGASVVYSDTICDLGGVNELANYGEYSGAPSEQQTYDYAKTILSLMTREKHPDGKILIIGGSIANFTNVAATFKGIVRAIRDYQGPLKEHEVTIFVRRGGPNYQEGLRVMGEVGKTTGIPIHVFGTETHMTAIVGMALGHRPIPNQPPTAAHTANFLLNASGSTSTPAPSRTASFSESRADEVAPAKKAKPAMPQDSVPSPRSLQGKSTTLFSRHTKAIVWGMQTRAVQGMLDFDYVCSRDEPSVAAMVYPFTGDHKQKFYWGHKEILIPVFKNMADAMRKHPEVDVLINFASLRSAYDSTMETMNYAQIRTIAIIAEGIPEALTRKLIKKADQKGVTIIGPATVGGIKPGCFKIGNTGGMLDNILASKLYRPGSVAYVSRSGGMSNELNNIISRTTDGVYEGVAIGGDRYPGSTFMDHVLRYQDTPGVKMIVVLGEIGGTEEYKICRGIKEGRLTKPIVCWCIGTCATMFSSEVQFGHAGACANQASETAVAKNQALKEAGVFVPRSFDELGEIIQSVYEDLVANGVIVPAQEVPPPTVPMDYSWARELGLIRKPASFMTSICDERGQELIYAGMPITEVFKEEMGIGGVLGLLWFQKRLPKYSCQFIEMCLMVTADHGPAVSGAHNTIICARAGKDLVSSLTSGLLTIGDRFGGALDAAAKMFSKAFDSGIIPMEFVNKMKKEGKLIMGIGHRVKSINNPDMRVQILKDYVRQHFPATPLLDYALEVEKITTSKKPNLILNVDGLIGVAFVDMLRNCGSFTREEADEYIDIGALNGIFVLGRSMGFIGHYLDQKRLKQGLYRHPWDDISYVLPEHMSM
Test compounds were 3-fold serially diluted in DMSO over 11-point concentration range and dispensed onto a 384-well plate. Recombinant human ACLY full length protein was purified. Concentrations of ACLY protein, sodium citrate, coenzyme A, and ATP in the reaction were optimized for standardized homogenous enzyme assay using ADP-Glo™ Kinase (Promega Inc.). The assay measured ADP formed from the enzymatic reaction.
The reaction buffer consisted of the assay buffer (50 mM HEPES pH 8.0, 10 mM MgCl2, 4 mM 1,4-Dithiothreitol, 0.01% Brij® 35).
ACLY protein (0.5 nM) was added to the prepared reaction buffer, and the mixture was dispensed into the assay plate and incubated for 30 minutes at room temperature. Next, 15 μM sodium citrate, 1 μM coenzyme A, and 80 μM ATP were added into the assay plate and incubated for 60 minutes at room temperature. The final reaction volume for each well was 5 μL.
5 μL of ADP-Glo™ reagent was added, and the mixture was incubated for 40 minutes at room temperature. 10 μl ADP-Glo™ detection reagent was added, and the mixture was incubated for 30 minutes at room temperature. Luminescence was determined using EnVision microplate reader with ultra-luminescence module (Perkin Elmer Inc). Concentration-response curve-fitting and IC50 determination was performed using Xlfit Software (version 5.5.0) with a four-parameter logistic regression fit model.
A general note: ADP-Glo turns the ADP formed in a reaction into a luminescent signal.

Data set [3] deals with T1, ACLY (Homo sapiens (Human), UniProt P53396). Briefly: Human ACLY (hACLY) RF/MS activity assay. Type of data set: biochemical. The following applies: 1 nM hACLY; 30 min pre-incubation; 15 μM Coenzyme A, 50 μM ATP, 50 μM citrate; CoA to Acetyl-CoA by RF/MS; read-out: RFMS IC50 GMean. The essentials:
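Reaction buffer was 50 mM Hepes pH 8.0, 10 mM MgCl2, 0.003% BSA, 0.01% Brij35, 50 mM NaCl, 4 mM DTT, with 1 nM hACLY and 1% DMSO; compounds (two-fold series from 10 μM) were pre-incubated 30 min at RT. Reaction with 15 μM CoA, 50 μM ATP, 50 μM citrate ran 30 min, formic-acid quenched; CoA and acetyl-CoA quantified by RF/MS as ratio.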

The test system of another data set is HepG2 cells. Nature of the data set: Fatty acid synthesis (FAS) assay in HepG2 cells. Particulars: Homo sapiens, 1.5 h, 14C-citrate 50 μM, 90 min, read-out: FAS IC50 GMean. Type of data set: cell-based. As to the method:
HepG2 cells were seeded into white clear-bottom 96-well plates (50,000/well) coated with collagen and incubated at 37° C. for 16-24 hours. Thereafter the plates were washed once with 100 μL PBS (+CaCl2+MgCl2) and 50 μL assay medium ([…] containing 11 mM glucose, 10 mM HEPES and 1 nM Insulin) per well was added. Test substances in assay medium were added (10 μL, 0.5% DMSO) and incubated for 20 min at 37° C. After that 10 μL assay medium containing ^14C-citrate (final concentration 50 μM) and PrestoBlue reagent (lx final concentration; ThermoFisher) were added and incubated for 90 min (37° C., 5% CO2). Cell viability was measured (Multiskan FC, microplate reader, absorbance 570 nm). Medium was removed by inverting the plate and cells were washed once with 100 μL ice-cold PBS. Cells were lysed with 50 μL lysis buffer (0.1 N NaOH, 0.1% Triton X-100) and plate was sealed with Tape Pads and vortexed. For the saponification reaction plates were incubated for 16-24 hours at 80° C. Seals were removed and 200 μL 0.1 N HCl was added for neutralisation of the pH. 150 μL from each well was transferred into the corresponding wells of a 96-well Flash plate (Perkin Elmer) and sealed with TopSeal A (Perkin Elmer). Plates were incubated for 4 h at 70° C., and for 1 h at room temperature in the dark. Signal of ^14C radioactivity was measured (TopCount). As a positive control 5 mM unlabelled citrate or C75 (Sigma, C5490) was applied.

Data set [4] concerns the target T1, ACLY. Nature of the data set: InCell Pulse assay (permeate HEK293 cells, bind to and stabilize ACLY). Type of data set: cell-based. The following applies: HEK293 cells transfected with pICP-ACLY(FL)-ePL; 1 hour at 37° C., 55° C. heat pulse 10 minutes; read-out: InCell Pulse IC50 GMean. Summed up:
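HEK293 cells transiently expressing full-length ACLY-ePL were exposed in OptiMEM to 11-point, 3-fold compound dilutions for 1 h at 37 °C, heat-pulsed 10 min at 55 °C, then lysed for enzyme-fragment complementation luminescence. Four-parameter fit, normalised to 0.5% DMSO and 1 μM NDI-094311.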

The conditions of data set [5]: from COc1c(Cl)cc(C(=O)O)cc1S(=O)(=O)Cc1cc(-c2ccccc2OCCN)c(F)cc1F; amide bond; 15-membered ring; T3P/DIPEA; DMF; 48.0 mM; 21.0 h.

T1 sequence (P53396 whole entry): as above

`O=C1NCCOc2ccccc2-c2cc(c(F)cc2F)NS(=O)(=O)c2cc1cc(Cl)c2OC(F)F` [Compound 15, 15-chloro-16-(difluoromethoxy)-21,23-difluoro-8-oxa-18lambda6-thia-11,19-diazatetracyclo[18.3.1.1^13,17.0^2,7]pentacosa-1(24),2,4,6,13,15,17(25),20,22-nonaene-12,18,18-trione]: in data set [1] (from 3-[[5-[2-(2-aminoethoxy)phenyl]-2,4-difluoro-phenyl]sulfamoyl]-5-chloro-4-(difluoromethoxy)benzoic acid·HCl, amide bond, T3P/DIPEA, DMF, 18.1 mM), the ring closure, yield after HPLC came to 48%. The IC50 in data set [2] is not below 1000 nM; at ACLY [3], not below 10000 nM; in the data set with HepG2 cells it was 2000 to 10000 nM; on ACLY [4], not below 50000 nM.

`COc1c(Cl)cc2cc1S(=O)(=O)Nc1cc(c(F)cc1F)-c1ccccc1OCCOC2=O` had a ring closure, yield after HPLC in data set [1] (from COc1c(Cl)cc(C(=O)O)cc1S(=O)(=O)Nc1cc(-c2ccccc2OCCO)c(F)cc1F, ester bond, 2,4,6-trichlorobenzoyl chloride/DIEA/DMAP, THF, 13.1 mM, 65.0 °C, 4.0 h) of 18%.

With `O=C1NCCCOc2ccccc2-c2cc(c(F)cc2F)NS(=O)(=O)c2cc1cc(Cl)c2O` [Compound 6, 16-chloro-22,24-difluoro-17-hydroxy-8-oxa-19lambda6-thia-12,20-diazatetracyclo[19.3.1.1^14,18.0^2,7]hexacosa-1(25),2,4,6,14,16,18(26),21,23-nonaene-13,19,19-trione], the IC50 in data set [2] was 10 to 1000 nM; at ACLY [3], 100 to 10000 nM; in the data set with HepG2 cells it was 10000 to 50000 nM; at ACLY [4], not below 50000 nM.

As for `CN1CCCc2ccccc2-c2cc(c(F)cc2F)NS(=O)(=O)c2cc(cc(Cl)c2O)C1=O` [Compound 10, 15-chloro-21,23-difluoro-16-hydroxy-11-methyl-18lambda6-thia-11,19-diazatetracyclo[18.3.1.1^13,17.0^2,7]pentacosa-1(24),2,4,6,13,15,17(25),20,22-nonaene-12,18,18-trione], the half-inhibitory concentration (IC50) in data set [2] was 1 to 10 nM; on ACLY [3] it was 20 to 100 nM; in the data set on HepG2 cells, 2000 to 10000 nM; on ACLY [4], less than 300 nM.

Turning to `O=C1NCCCc2ccccc2-c2cc(c(F)cc2F)NS(=O)(=O)c2cc1cc(Cl)c2O` [Compound 8, 15-chloro-21,23-difluoro-16-hydroxy-18lambda6-thia-11,19-diazatetracyclo[18.3.1.1^13,17.0^2,7]pentacosa-1(24),2,4,6,13,15,17(25),20,22-nonaene-12,18,18-trione], the IC50 was in the range of 1 to 10 nM in data set [2], 20 to 100 nM at ACLY [3], 10000 to 50000 nM in the data set with HepG2 cells and 300 to 1000 nM on ACLY [4].

Consider `CN1c2cc(c(F)cc2F)-c2ccccc2OCCNC(=O)c2cc(Cl)c(O)c(c2)S1(=O)=O` [Compound 9, 15-chloro-21,23-difluoro-16-hydroxy-19-methyl-8-oxa-18lambda6-thia-11,19-diazatetracyclo[18.3.1.1^13,17.0^2,7]pentacosa-1(24),2,4,6,13,15,17(25),20,22-nonaene-12,18,18-trione], for which the IC50 in data set [2] was not below 1000 nM; on ACLY [3] it was not below 10000 nM; in the data set with HepG2 cells, not below 50000 nM; at ACLY [4], not below 50000 nM.

As for `CN1CCOc2ccccc2-c2cc(c(F)cc2F)NS(=O)(=O)c2cc(cc(Cl)c2O)C1=O` [Compound 4, 15-chloro-21,23-difluoro-16-hydroxy-11-methyl-8-oxa-18lambda6-thia-11,19-diazatetracyclo[18.3.1.1^13,17.0^2,7]pentacosa-1(24),2,4,6,13,15,17(25),20,22-nonaene-12,18,18-trione], the IC50 lay in the range of 1 to 10 nM in data set [2], 20 to 100 nM at ACLY [3], 10000 to 50000 nM with HepG2 cells and 1000 to 50000 nM on ACLY [4].

`C[C@H]1COc2ccccc2-c2cc(c(F)cc2F)NS(=O)(=O)c2cc(cc(Cl)c2O)C(=O)N1` [Compound 17, (10S)-15-chloro-21,23-difluoro-16-hydroxy-10-methyl-8-oxa-18lambda6-thia-11,19-diazatetracyclo[18.3.1.1^13,17.0^2,7]pentacosa-1(24),2,4,6,13,15,17(25),20,22-nonaene-12,18,18-trione]: the IC50 is 10 to 1000 nM in data set [2], 100 to 10000 nM at ACLY [3], not below 50000 nM with HepG2 cells and not below 50000 nM at ACLY [4].

As for `COc1c(Cl)cc2cc1S(=O)(=O)Cc1cc(c(F)cc1F)-c1ccccc1OCCNC2=O`, the ring closure, crude yield in data set [5] worked out at 81%.

In the case of `O=C1OCCCc2ccccc2-c2cc(c(F)cc2F)NS(=O)(=O)c2cc1cc(Cl)c2O` [Compound 16, 15-chloro-21,23-difluoro-16-hydroxy-11-oxa-18lambda6-thia-19-azatetracyclo[18.3.1.1^13,17.0^2,7]pentacosa-1(24),2,4,6,13,15,17(25),20,22-nonaene-12,18,18-trione], the IC50 in data set [2] is less than 1 nM; at ACLY [3], 20 to 100 nM; with HepG2 cells, less than 2000 nM; on ACLY [4] it was less than 300 nM.

For `O=C1OCCOc2cc(Cl)ccc2-c2cc(c(F)cc2F)NS(=O)(=O)c2cc1cc(Cl)c2O` [Compound 18, 5,15-dichloro-21,23-difluoro-16-hydroxy-8,11-dioxa-18lambda6-thia-19-azatetracyclo[18.3.1.1^13,17.0^2,7]pentacosa-1(24),2,4,6,13,15,17(25),20,22-nonaene-12,18,18-trione], the IC50 in data set [2] was 1 to 10 nM; on ACLY [3], 20 to 100 nM; in the data set on HepG2 cells, 2000 to 10000 nM; at ACLY [4], 300 to 1000 nM.
